The values that follow come from patent US6120997A, “Nucleic acid binders having an hydroxyamine motif” (The Scripps Research Institute, priority 1998, dated 2000).

A short description of data set [1]: NMR dilution experiments of 1:1 salt complexes in DMSO-d6 (phosphodiester recognition). It is filed as binding. The procedure: (§1) [a] NMR dilution experiments with the preformed 1:1 salt complexes were performed in DMSO-d6 at […]; [b] calculated maximum shift at full complexation in ppm.
(§2) In order to determine binding constants we prepared defined 1:1 salt complexes and measured their dissociation upon stepwise dilution in [D6 ]DMSO by following the shifts of NH and OH resonances. The chemical shift values of the totally uncomplexed state (o) and the fully complexed state (n) and the stability constant Ka were subsequently determined by curve fitting. […] In all cases, data could be fitted to a 1:1 binding isotherm. […] This order mirrors the order of binding affinities and is consistent with the interpretation that differential involvement of the hydroxyl group in hydrogen bonding provides for the energetic differences in complexation.

Data set [2] in a line: NMR dilution experiments with chloride counterion in DMSO-d6. It is filed as binding. As to the method:
as §1, §2

Data set [3] is described as follows: 13C-NMR titration of neamine with sodium sulfate in water. It counts as binding. To be noted: pH 3.5. The source says:
FIGS. 4A-4D illustrate the titration of neamine (12) with sodium sulfate at pH 3.5: (A) Titration curve for C1'. (B) Job plot; x=% complex formation. (C) Structure of neamine indicating the sites of maximum observed shift. (D) Maximum observed shift.
(§3) To investigate whether 1,3-hydroxyamine substructures may be involved in binding in aqueous solution, we turned our attention to neamine (12; FIG. 4), a pseudodisaccharide substructure commonly found in a wide range of aminoglycoside antibiotics. […] These weak forces may, however, be enhanced by increasing the charge of the interacting species. In fact, many recognition events involving nucleic acids--including those by aminoglycosides--are likely to have a strong contribution from their polyionic character. We therefore turned our attention to sulfate, as it is a tetrahedral oxyanion similar to phosphate and its double negative charge mimics the effect of a polyanion. Furthermore, it has a defined ionization state. Since the spectra of aminoglycosides are highly dependent on pH, and even minor pH changes can outweigh any small complexation induced shifts, we performed binding studies at low pH, where neamine is fully protonated. […] Analysis of ^13 C-NMR spectra provided a clearer picture (FIG. 4). […] Thus, the selectivity found in aqueous solution is in full agreement with the order of binding affinities determined in the model compounds.

Data set [4] in a line: NMR binding study with dimethylphosphate in water. The following applies: concentration ranges accessible by NMR.
Excerpt: as §3

The target in data set [5] is AS-wt. The data set is described as follows: SPR binding of aminoglycosides to decoding region A-site model AS-wt. Set-up: species or system E. coli. As to the method:
The RNA binding properties of 100-800 were analyzed using a surface plasmon resonance based assay that was recently developed in these laboratories. This assay allows the determination of both affinity and specificity of small molecule-RNA interactions. For the analysis, the compounds were injected over a matrix containing RNA that was immobilized through a biotin tag and the equilibrium binding values were recorded at various concentrations.
Non-linear curve fitting was then used to determine the values of the dissociation constants (KD). The specificity of binding, i.e. the ability to discriminate between different RNA sequences was evaluated by comparing the binding to the target sequence (AS-wt) and the negative control (AS-U1495A). The ratio of KD(AS-U1495A) to KD(AS-wt) was taken to be a representation of the specificity of the binding event.
For the quantitative measurement of aminoglycoside binding to these sequences, we utilized our recently developed SPR-based assay. Biotinylated derivatives of all sequences were prepared by in vitro transcription in the presence of guanosine 5'-monophosphorothioate followed by alkylation with a biotin iodoacetamide derivative. The RNA conjugates were then immobilized onto streptavidin coated SPR-sensorchips for analysis.
In the same manner as illustrated for paromomycin, a panel of aminoglycosides was screened and the results are compiled in the table of FIGS. 46 and 47. In addition to the naturally occuring aminoglycoside antibiotics, some of the compounds in FIG. 46 are synthetically derived, unnatural aminoglycosides. The number of independent determinations for each dissociation constant ranged from 1-3. […] All data were recorded under near physiological salt conditions (HBS-buffer: 150 mM NaCl, 10 mM HEPES, pH7.4, 3.4 mM EDTA) unless noted otherwise. Data points were taken at concentrations ranging from […]. Below this concentration range, surface transport limitations prevent the attainment of equilibrium.
Plasmon resonance and antimicrobial testing for Example 4. Synthesis of the biotinylated RNA and surface plasmon resonance detected binding experiments were performed as described vida supra. Solution conditions: 150 mM NaCl, 10 mM HEPES (pH 7.4), 3.4 mM EDTA. KD determination from the binding curves.
The fitting routine of the program kaleidagraph was used for all calculations. The starting values for a and b were set to 1 and 0 respectively. The number of KD values used in the fitting was adjusted depending on the observed range of equivalents bound but generally varied from 3 to 4.
General Procedures for SPR Binding Studies done in Example 5. Samples were prepared by serial dilutions from stock solutions in RNase free microfuge tubes (Ambion) and were centrifuged at 14000 rpm for degassing. Unless otherwise noted, all binding studies were carried out using HBS buffer (Pharmacia Biosensor AB) which was used as obtained. All procedures for binding studies were automated as methods using repetitive cycles of sample injection and regeneration. Typically, buffer was injected in the first two cycles to establish a stable baseline value. Samples were injected at a flowrate of […] using either the KINJECT command. All aminoglycoside samples were injected from autoclaved 7 mm plastic vials that were capped with pierceable plastic crimp caps. To minimize carry over, samples were injected in order of increasing concentration. The running buffer was identical to the injection buffer. Expected values for the equilibrium response of one equivalent of analyte were calculated from the relative molecular weight of the analyte and the immobilized RNA ligand in each flowcells and adjusted with a correction factor of 0.76 which arises from the different molar refractive indices of RNA and the analyte. […]
A general note: SPR reads the build-up and loss of mass on a sensor chip optically.

The subject of data set [6] is Escherichia coli (ATCC 25922). The data set is described as follows: minimum inhibitory concentration, broth dilution technique. It counts as cell-based. To be noted: E. coli, liquid culture. The source says: We reasoned that this modification would provide the cleanest test for probing the ionic contribution, since hydrogen bond donor abilities, electronegativity and steric demand are similar for both functional groups. In order to learn how well the model system correlates with in vivo activity, we checked the new compounds for antibacterial activity against three bacterial strains using the disc method (Kirby-Bauer technique). The minimum inhibitory concentrations (MICs) of the compounds were then determined using the broth dilution technique. For antibiotic testing protocols, see: (a) Disk testing protocols: Phillips, I.; Williams, D., in Laboratory Methods in Antimicrobial Chemotherapy, Garrod, L. (ed.) Churchill Livingstone Press: Edinburgh, 1978, pp. 3-30. (b) MIC determination: Waterworth, P. M., in Laboratory Methods in Antimicrobial Chemotherapy, Garrod, L. (ed.) Churchill Livingstone Press: Edinburgh, 1978, pp. 31-40; Barry, A. L. The Antimicrobic Susceptibility Test: Principles and Practice, Lea and Febiger: Philadelphia (1976). (c) Standards: Lorian, V., Antibiotics in Laboratory Medicine (2nd. ed.), Williams and Wilkins: Baltimore, 1986.
FIG. 39A gives the zone diameters measured for the three bacterial strains. The zone diameters measured for the strains with known antibiotics are well within the accepted limits. […] It is worth noting that some testing protocols recommend overnight growth of the cultures, rather than the minimum time required to obtain good growth of the control. MIC values were tested for several of the control antibiotics using overnight growth, and the MIC values observed were 2-4× greater than those observed for 4-6 hour growth.
Minimal Inhibitory Concentration (MIC) testing. E. coli ATCC 25922 was grown in Mueller-Hinton broth (cation-adjusted, BBL Microbiology Systems) to an optical density of approx. 0.5 (absorbance read at 600 nm), then diluted to an OD600 of 0.1. Samples of antibiotic were prepared in Mueller-Hinton broth, typically a series of 2-fold dilutions from […]. […] The absorbance of each sample was read (1=600 nm), and MIC was considered to be the lowest antibiotic concentration at which the absorbance was less than 1% of the no-antibiotic control.

The test system of data set [7] is bacterial protein synthesis. To be noted: cited from earlier work.
Data set [8] concerns the target Rev27 (synthetic Rev34-50 RNA-binding peptide with flanking Ala and N-terminal Cys) (Human immunodeficiency virus 1) (UniProt P04618). The data set is described as follows: SPR. The following applies: pH 7.4, 10 mM HEPES, 150 mM NaCl, 150 mM Na2SO4, 3.4 mM EDTA, 5 mM DTT, 10 C; 1:1; FIG. 7 legend gives 200 nM; Kd <10 nM at 5 C in 300 mM NaCl without sulfate.
Sequence of UniProt P04618 (P04618 whole entry): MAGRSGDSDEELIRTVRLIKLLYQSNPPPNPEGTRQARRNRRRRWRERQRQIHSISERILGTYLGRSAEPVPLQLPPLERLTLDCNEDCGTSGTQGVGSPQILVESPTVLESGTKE

For the compound `CO[C@H]1O[C@H](CN)[C@@H](O)[C@H](OCc2ccccc2)[C@H]1OCc1ccccc1` [Compound 2], in data set [1], the “dimethylphosphate binding affinity (in words)” value is “higher affinity than bicyclic guanidine 6” and the “selectivity for dimethylphosphate over chloride” value amounted to 10 fold.

In the case of `CO[C@H]1O[C@H](CNCc2ccccc2)[C@@H](O)[C@H](OCc2ccccc2)[C@H]1OCc1ccccc1` [Compound 3], in data set [1], the “selectivity for dimethylphosphate over chloride” value stood at 7 fold. The “chloride binding (in words)” value in data set [2] is “lower chloride binding compared to 2, 4 and 5”.

Take `NC[C@H]1O[C@H](O[C@H]2[C@H](O)[C@@H](O)[C@H](N)C[C@@H]2N)[C@H](N)[C@@H](O)[C@@H]1O` [Neamine]: the “binding stoichiometry with sulfate (method of Job)” value in data set [3] is reported as 1:1 complex. Further, the “binding to dimethylphosphate in water (in words)” value in data set [4] is “no detectable binding”. In data set [5] (150 mM NaCl, 10 mM HEPES (pH 7.4), 3.4 mM EDTA, read-out: dissociation constant, AS-wt), the Kd worked out at 7.8 µM. Moreover, the “specificity for AS-wt over negative controls (in words)” value in data set [5] (Example 5, HBS-buffer) was “moderate specificity for AS-wt over AS-U1495A”. For the same compound, the “specificity for AS-wt relative to AS-U1495A” value in data set [5] (KD(AS-U1495A)/KD(AS-wt)) is given as “approximately 4 fold”. Also, in data set [6], the “antibacterial activity / MIC compared with neomycin B (in words)” value is “inferior anti microbial activity”. Further, the “effect on bacterial protein synthesis (in words)” value in data set [7] is on record as “induces miscoding during translation”.

Regarding wt-RRE-II, the Kd in data set [8] is 0.215 µM.
